Experimental data published in US9586928B2 (The Scripps Research Institute, priority 2011, dated 2017).

Assays:
T regulatory cells = test: T regulatory cell differentiation of splenocytes (RTPCR, Foxp3 FACS); assay type: cell-based, murine
Method: Therefore, the environmental cues associated with the concentration of TGF[…] dictates the balance between TH17 and T regulatory cell differentiation. In light of the reciprocal relationship between these two cell types, we assessed whether SR1555 affected the development of T regulatory cells in vitro. Splenocytes were cultured under T regulatory cell polarizing conditions (TGFβ and IL-2) for 3 days. […] To determine whether the gene expression data would correlate with protein expression, we again cultured splenocytes for 5 days under T regulatory cell polarizing conditions in the presence of DMSO or SR1555 and examined the expression of Foxp3 by intracellular cytokine FACS analysis.
Splenocytes were differentiated under the following conditions: iTreg-10 μg/mL anti-IFNγ, 10 μg/mL anti-IL-4, and 2 ng/mL TGFβ (R&D Systems); 20 ug/mL anti-IFNγ, 20 ug/mL anti-IL-4, 1 ng/mL TGFβ, and 10 ng/mL IL-6 (R&D Systems) for TH17 conditions. All cultures were stimulated with 1 μg/mL anti-CD3 (eBiosciences) and 1 μg/mL anti-CD28 (eBiosciences). Four to five days after activation, all cells were restimulated with 5 ng/mL phorbol-12-myristate-13-acetate (PMA) (Sigma) and 500 ng/mL ionomycin (Sigma) for 2 hours with the addition of GolgiStop (BD Bioscience) for an additional 2 hours before intracellular staining. Cells were cultured in RPMI 1640 medium (Invitrogen) with 10% FBS and antibiotics.
RNA extraction and QRT-PCR analysis was performed as previously described.

RORα = target: T1, RORα (Homo sapiens, UniProt P35398); test: IL-17 promoter luciferase reporter with full-length RORα; assay type: cell-based
T1 sequence (P35398 1-523): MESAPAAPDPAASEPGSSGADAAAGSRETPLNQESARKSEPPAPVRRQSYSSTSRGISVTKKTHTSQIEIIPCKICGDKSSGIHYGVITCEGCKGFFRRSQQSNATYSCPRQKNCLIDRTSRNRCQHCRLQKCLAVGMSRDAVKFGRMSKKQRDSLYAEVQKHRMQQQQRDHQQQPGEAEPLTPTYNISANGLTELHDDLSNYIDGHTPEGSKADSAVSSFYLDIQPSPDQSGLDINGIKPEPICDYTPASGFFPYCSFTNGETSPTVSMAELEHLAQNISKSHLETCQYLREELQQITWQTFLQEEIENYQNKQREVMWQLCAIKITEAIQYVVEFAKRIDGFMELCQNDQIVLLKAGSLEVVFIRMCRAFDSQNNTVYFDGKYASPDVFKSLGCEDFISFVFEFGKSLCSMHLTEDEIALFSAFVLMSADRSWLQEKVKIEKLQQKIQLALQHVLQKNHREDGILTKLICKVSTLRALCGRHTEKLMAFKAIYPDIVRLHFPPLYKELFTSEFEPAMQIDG
Text: Since RORα and RORγ are critical regulators of IL-17 gene expression, we examined whether SR1555 would affect RORα and RORγ-dependent regulation of an IL-17 promoter driven luciferase reporter construct. HEK293 cells were transiently transfected with an IL-17 reporter, either full-length RORα or RORγ, and treated with an increasing concentration of SR1555[8]. In a dose dependent manner, SR1555 suppressed IL-17 promoter driven activity by RORγ but not RORα, further confirming that SR1555 is indeed a RORγ-specific inverse agonist (FIG. 1d). Finally, using EL4 cells, a murine thymoma which endogenously express RORα, RORγ t, and IL-17A, we examined whether SR1555 affected endogenous IL-17 gene expression. EL4 cells were treated with DMSO or SR1555 for 24 hours and analyzed for Il17a gene expression by quantitative real-time PCR.
Cotransfection assays were performed as previously described in HEK293 cells (Gal4 cotransfection assay or IL-17 luciferase reporter)[8]. […]
HEK293 cells were maintained in Dulbecco's modified Eagle's medium (DMEM) supplemented with 10% fetal bovine serum at 37° C. under 5% CO2. […] The luciferase levels were assayed following additional 20 hour incubation by one-step addition of BriteLite Plus (Perkin Elmer) and read using an Envision (Perkin Elmer). […]

LXR = target: T2, LXR (Homo sapiens, UniProt Q13133); test: Gal4-LXRα / UAS luciferase cotransfection assay; assay type: cell-based
T2 sequence (Q13133 209-447 limits assumed): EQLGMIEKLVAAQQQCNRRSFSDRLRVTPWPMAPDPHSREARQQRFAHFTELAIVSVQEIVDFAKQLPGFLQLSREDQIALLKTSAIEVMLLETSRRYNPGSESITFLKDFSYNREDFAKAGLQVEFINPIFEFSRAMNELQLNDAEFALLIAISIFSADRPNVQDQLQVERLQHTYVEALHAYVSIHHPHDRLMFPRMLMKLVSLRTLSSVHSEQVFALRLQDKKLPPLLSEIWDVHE

OC(c1ccc(-c2ccc(CN3CCN(Cc4ccncc4)CC3)cc2)c(F)c1)(C(F)(F)F)C(F)(F)F [SR2211, 1,1,1,3,3,3-hexafluoro-2-(2-fluoro-4′-((4-(pyridin-4-ylmethyl)piperazin-1-yl)methyl)-[1,1′-biphenyl]-4-yl)propan-2-ol]
T regulatory cell proliferation (T regulatory cells): does not alter T regulatory cell proliferation | IL-17 promoter driven activity by RORα (RORα): did not alter the transcription driven by the Il17 promoter | right shift of EC50 on LXRα (LXR): more than 100 fold | effect on LXR activity (LXR; Gal4 chimeric cotransfection): minimal activation of LXRα | activation of LXRα as compared to T1317 (LXR; highest concentration tested): less than 5%
